Measured values: publication PMC8406319, “The dCache Chemoreceptor TlpA of Helicobacter pylori Binds Multiple Attractant and Antagonistic Ligands via Distinct Sites” (mBio, 2021)
Where a name gives a salt, the structure may show the parent alone.

Assays:
H. pylori PMSS1 ΔtlpA = experiment: Temporal chemotaxis assay (direction changes), ΔtlpA mutant; format: cell-based, Helicobacter pylori; details: ligands 0.1-10 mM, controls 50 μM dipyridyl, 10 mM HCl
Experimental: Cultures of H. pylori PMSS1 WT and ΔtlpA strains were grown overnight, back-diluted, and then incubated until an OD600 of 0.12 to 0.15 was reached. Cultures were treated with water (Mock) or various concentrations of compounds, as indicated. For panels C and E, the pH of cysteine, thiamine, malic acid, and α-ketoglutarate stocks was adjusted using NaOH to match the pH of the water used for the untreated control. The cells were immediately filmed, and direction changes were counted over a 3-s swimming period in at least 100 cells per treatment from 3 biological replicates. Data are normalized to the values for the untreated control for each strain, as described in Materials and Methods. Error bars represent the standard errors of the means. *, P < 0.05; **, P < 0.01; ***, P < 0.001 (comparisons to the untreated control per strain using two-way ANOVA with Dunnett’s multiple-comparison test).
To determine if chemoattractant responses toward arginine, fumarate, and cysteine were TlpA dependent, the same tracking experiments were repeated with a mutant lacking tlpA (ΔtlpA).
Swimming behavior assays were done with H. pylori PMSS1 strains grown in BB10 as described above. Cultures grown overnight were diluted to an optical density at 600 nm (OD600) of 0.1 in fresh BB10 and then incubated with shaking as described above until an OD600 of 0.12 to 0.15 was reached. […] The number of direction changes in a bacterial swimming trajectory was enumerated over a 3-s interval to determine whether each putative ligand is sensed as an attractant or repellent or elicits no response ([20], [25][–][30]). […] Each control is sensed by chemoreceptors other than TlpA ([24], [25], [29], [31]). The pH of BB10 upon treatment was independently assessed using a Denver Instruments pH meter. Prior to realizing that chemotactic responses may be due to medium acidification, we resuspended all ligands in pure water. Therefore, to be able to compare the results to those of previous experiments, we continued resuspending acidified ligands in pure water and then adjusting the pH of the resuspended ligand using NaOH. Cultures were filmed immediately after ligand addition at a ×400 magnification using a Hamamatsu C4742-95 digital camera with μManager software (version 1.4.22), mounted on a Nikon Eclipse E600 phase-contrast microscope. For the competition chemotaxis assay, cultures of H. pylori and ligands were prepared as described above. However, 1 min after the addition of a nonchemoactive ligand at a final concentration of 10 mM, a chemoactive ligand was added at a final concentration of 10 mM, and the cultures were then filmed as described above. Videos were relabeled to blind the observer to the strain identity. For each sample, >100 3-s-long bacterial tracks from three independent cultures were analyzed manually to identify stops followed by direction changes. Data for all biological replicates under each condition were combined, and the average number of direction changes in 3 s and the standard error of the mean were calculated. For each strain, data were normalized to the values for the untreated control under each experimental condition. Statistical analysis of the data for treated versus untreated samples was performed using two-way analysis of variance (ANOVA) and Dunnett’s multiple-comparison test.

TlpALBD = experiment: Saturation transfer difference (STD) NMR; format: binding, Helicobacter pylori SS1; details: 25 μM TlpALBD, 2.5 mM ligand
Experimental: In the saturation transfer difference (STD) NMR experiment, the entire TlpALBD protein was first saturated at the protein resonances, and excess ligand was then added. As the ligand binds and releases from the receptor, saturation transfers from the protein to the bound ligand. This transfer appeared as an […] in the ligand intensity on epitopes that interacted with the TlpALBD protein. […] All STD NMR spectra were acquired in Shigemi tubes (Shigemi, USA) with a Bruker 600-MHz Advance spectrometer at 283 K using a 1^H-13^C-15^N gradient cryoprobe equipped with z-gradients. Protein resonances were saturated at −1.0 ppm (on-resonance) and 33 ppm (off-resonance), with a total saturation time of 2 s. A total of 512 scans per STD NMR experiment were acquired, and a Watergate sequence was used to suppress the residual HDO signal. A spin-lock filter with a 5-kHz strength and a duration of 10 ms was applied to suppress the protein background. On- and off-resonance spectra were stored and processed separately, and the final STD NMR spectra were obtained by subtracting the on- and off-resonance spectra. Control STD NMR experiments were performed identically in the absence of protein.

TlpALBD point mutants = experiment: SPR binding affinity of TlpALBD point mutants relative to WT; set-up: species or system Helicobacter pylori SS1; details: Y228A, Y252A, D254A vs WT
Excerpt: The periplasmic portion of TlpA (TlpALBD), amino acids 28 to 299, from Helicobacter pylori SS1 was cloned into a pBH4 expression vector (pBH4_TlpALBD) to generate an N-terminal 6×His-tagged construct, with a tobacco etch virus (TEV) protease site, under the control of isopropyl-β-D-thiogalactopyranoside (IPTG) ([19]). […] TlpALBD and all point mutants were purified as described previously by Sweeney et al. ([19]).
Purified TlpALBD was immobilized on a CM5 series S sensor chip, and binding affinities were tested using a Biacore S200 instrument (GE Healthcare) as described previously ([39], [57], [59]). Briefly, proteins were captured using an amine-coupling kit (GE Healthcare), in which the carboxylmethyl dextran matrix of the sensor chip was activated by the injection of a mixture of 0.2 M 1-ethyl-3-[(3-dimethylamino)propyl]-carbodiimide (EDC) and 0.05 M N-hydroxysuccinimide (NHS), followed by the neutralization of the remaining unreacted NHS ester groups by the injection of 1 M ethanolamine-HCl (pH 8.0). Purified TlpALBD was diluted in 10 mM sodium acetate buffer (pH 4.5) at a concentration of 100 μg/ml for immobilization to the chip. A total of 8,400 response units (RU) of TlpALBD were captured on flow cell 2. […] The data sets were analyzed using Biacore S200 evaluation software 2.0.2; sensorgrams were double-reference subtracted.

N=C(N)NCCC[C@H](N)C(=O)O [Arginine, L-arginine monohydrochloride]
Chemotactic response of ΔtlpA mutant (H. pylori PMSS1 ΔtlpA): failed to exhibit a chemotactic response
STD NMR signal on binding TlpALBD (TlpALBD): significant STD NMR signals were observed

N[C@H]1C(O)O[C@H](CO)[C@@H](O)[C@@H]1O (stereo partly drawn) [Glucosamine, D(+)-glucosamine hydrochloride]
Effect of proximal pocket residue mutations on binding affinity (TlpALBD point mutants): No proximal pocket residues affected the binding affinity

O=C(O)/C=C/C(=O)O [Fumarate, sodium fumarate]
Chemotactic response of ΔtlpA mutant (H. pylori PMSS1 ΔtlpA): failed to exhibit a chemotactic response
STD NMR signal on binding TlpALBD (TlpALBD): significant STD NMR signal was detected

N[C@@H](CS)C(=O)O [Cysteine, L-cysteine hydrochloride monohydrate]
Chemotactic response of ΔtlpA mutant (H. pylori PMSS1 ΔtlpA): failed to exhibit a chemotactic response
